Assay results taken from patent US8293211B2, “CB1 receptor antagonists and uses thereof” (MAKScientific, LLC, priority 2007, dated 2012).
Read-outs that look alike come from different tables or passages of the source.

Columns and labels:
[1] = system: Male Sprague-Dawley (SD) rats; assay: Food intake studies (experiments A, B, C), food intake and body weight; format: in vivo, rat; details: for food intake, difference to rats treated with Compound 3: 5 mg kg-1 each
Procedure: All experimental protocols were approved by internal guidelines. Different concentrations of drugs were administered I.P. in a 1 ml kg-1 (milliliters per kilogram) volume, except M6G, which was given s.c. (subcutaneously) in a 0.1 ml kg-1 volume.
Food and water were presented in inverted glass bottles that attached to the outside of the cage. Food was available for 18 h each day starting at 16:00 h (12 h light-dark cycle; lights off 16:00 h).
Intake measurements were taken at 1.5 h, 3 h, 5 h, and 18 h after food became available.
Rats were habituated to testing and handling procedures as before. […] Food intake and body weight were monitored daily.
On the day of the experiment each rat received only a single injection, 30 min later food was made available as described in experiment 1. Food intake was measured 0.5, 1.5, 3, 5, and 18 h after administration. Food intake and body weight were monitored daily for five days after the experiment to assess the sustained effect of a single administration of each compound.

[2] = target: CB1 receptor (Rattus norvegicus, UniProt P20272); assay: Thermoregulation assay: hypothermia induced by the CB1 agonist CP55,940; format: in vivo; parameters: antagonized CB1 receptors in vivo; from tissue; host or cells: whole animal, male SD rats; details: 5 mg kg-1 pre-treatment 45 min before CP55,940 0.3 mg kg-1; compared with vehicle
CB1 receptor, sequence (P20272 whole entry): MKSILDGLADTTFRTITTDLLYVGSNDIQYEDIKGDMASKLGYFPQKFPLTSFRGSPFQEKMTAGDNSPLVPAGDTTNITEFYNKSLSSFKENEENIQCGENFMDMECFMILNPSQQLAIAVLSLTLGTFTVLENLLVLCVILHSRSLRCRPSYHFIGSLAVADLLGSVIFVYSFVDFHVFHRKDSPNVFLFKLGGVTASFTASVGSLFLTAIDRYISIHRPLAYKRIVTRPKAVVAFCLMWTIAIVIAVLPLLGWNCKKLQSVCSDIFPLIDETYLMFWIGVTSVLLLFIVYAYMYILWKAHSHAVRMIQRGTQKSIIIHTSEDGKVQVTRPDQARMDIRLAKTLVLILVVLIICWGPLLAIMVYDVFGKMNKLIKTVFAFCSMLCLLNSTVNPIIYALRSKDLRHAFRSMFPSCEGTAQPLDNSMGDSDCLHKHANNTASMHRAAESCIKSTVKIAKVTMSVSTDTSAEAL
Procedure: Briefly, silicone coated temperature data loggers (SubCue Inc, Calgary, Canada) were surgically implanted into the abdominal cavity of male SD (450-500 g) rats under isoflurane anesthesia (4% induction; 2-2.5% maintenance). Rats were allowed to recover for 3 days before being acclimatized to testing and handling procedures for an additional seven days. Core body temperature readings were sampled every 5 min for 300 min during the course of each experiment.

[3] = target: T1, hCB1 (Homo sapiens, UniProt P21554); assay: Forskolin-stimulated cAMP assay; format: cell-based; details: HEK293 cells transfected with human CB1 receptors
T1 construct: expressed in transfected cells; host or cells: HEK293
T1 sequence (P21554 whole entry): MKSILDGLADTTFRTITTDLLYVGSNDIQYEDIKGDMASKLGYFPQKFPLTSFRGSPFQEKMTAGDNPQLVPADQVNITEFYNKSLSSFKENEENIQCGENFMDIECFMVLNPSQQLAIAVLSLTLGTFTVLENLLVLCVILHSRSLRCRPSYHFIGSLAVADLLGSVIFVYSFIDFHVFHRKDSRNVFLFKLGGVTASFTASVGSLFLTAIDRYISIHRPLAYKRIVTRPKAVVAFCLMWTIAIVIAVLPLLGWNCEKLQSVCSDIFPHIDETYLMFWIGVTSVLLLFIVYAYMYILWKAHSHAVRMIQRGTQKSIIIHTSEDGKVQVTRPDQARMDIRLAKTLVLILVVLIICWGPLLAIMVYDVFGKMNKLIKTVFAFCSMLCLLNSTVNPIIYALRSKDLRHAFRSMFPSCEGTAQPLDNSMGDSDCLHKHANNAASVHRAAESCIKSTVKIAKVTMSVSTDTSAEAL
Procedure: Intracellular cAMP levels were measured with a competitive protein-binding assay using intact HEK293 cells expressing hCB1 or hCB2 and a cAMP immunoassay kit from Sigma (St. Louis, Mo.). In short, forskolin stimulated cells were incubated with various concentrations of compound, cAMP anti-body and cAMP conjugate for 2 hours at ambient temperature. The reaction was stopped by emptying the wells followed by the addition of p-NPP substrate and incubation for 1 hour. […] The results were expressed as percent inhibition of forskolin-stimulated cAMP accumulation and EC50 curves were generated with the use of GraphPad Prism software.

[4] = system: Rats; assay: Operant lever pressing on FR5 schedules; format: in vivo, rat; details: for ED50: Rattus norvegicus
Procedure: Following the initial training period, rats (n=8 each group) were injected with drug and then tested once a week on Thursdays. For experiments 1 and 2, Compound 3 or Compound 2, respectively were injected IP at doses of 1.0, 2.0, 4.0, or 8.0 mg/kg or vehicle. Pretreatment time for these two experiments was 30 min. For experiments 3 and 4, rats were given drug or vehicle orally 1 hour before testing. In experiment 3, rats were given vehicle or 8.0, 16.0, or 32.0 mg/kg Compound 3. In experiment 4, rats received vehicle or Compound 2 at doses of 4.0, 8.0, or 16.0 mg/kg. All doses were given in a randomized order using a repeated measures design.

effect on forskolin stimulated cAMP production [3] | SMILES | acute effect on food intake compared with vehicle ([1]; experiment A, 5 mg kg-1 I.P. single dose) | food intake, difference to rats treated with Compound 3 ([1]; experiment A, 5 h) | food intake, difference to rats treated with Compound 3 ([1]; experiment A, 18 h) | early effect on food intake at each time point ([1]; experiment C, 5 mg kg-1 single dose) | weight gain for several days after the experiment ([1]; experiment C, single administration (Compound 1 5 mg kg-1; Compound 3 10, 20 mg kg-1)) | hypothermic effect of CP55,940 [2] | suppression of FR5 responding compared to vehicle ([4]; IP 1.0, 2.0, 4.0, 8.0 mg/kg) | ED50 ([4]; IP, pretreatment 30 min, read-out: ED50 for the effect on FR5 responding) | ED50 ([4]; oral, 1 hour before testing, read-out: ED50 for suppression of lever pressing on FR5) | change in lever pressing on FR5 compared to vehicle ([4]; oral, 1 hour before testing (Compound 3 8.0-32.0 mg/kg; Compound 2 4.0-16.0 mg/kg))
 | Cc1c(C(=O)NN2CCCCC2)nn(-c2ccc(Cl)cc2Cl)c1-c1ccc(I)cc1 [Compound 1, N-(Piperidin-1-yl)-5-(4-iodophenyl)-1-(2,4-dichlorophenyl)-4-methyl-1H-pyrazole-3-carboxamide, reference compound] | significantly reduced food intake | -15.5 g | -26.1 g | significantly reduced food intake | significantly reduced | significantly attenuated |  |  |  | 
no effect | Cc1c(C(=O)NN2CCOCC2)nn(-c2ccc(Cl)cc2Cl)c1-c1ccc(C#CCCC#N)cc1 [Compound 2] |  |  |  |  |  |  | significantly suppressed | 0.576 mg/kg | 1.49 mg/kg | dose-dependent decrease
